Data on twelve compounds can be found in US20260373119A1, “NOVEL COMPOUND, AND COMPOSITION FOR PREVENTING OR TREATING HER2-POSITIVE CANCER, COMPRISING SAME” (EWHA UNIVERSITY - INDUSTRY COLLABORATION FOUNDATION, priority 2022, published 2026).

Where only a bound is given, the exact number is not on record here.

Experiment [1] has as its target T1, ELF3-MED23 protein-protein interaction (Homo sapiens, UniProt Q9ULK4).
T1 construct: followed by the addition of either the candidate compound or MED23 protein constructs; endogenous in cells; host or cells: 293T kidney cells (MED23 endogenous; GAL4-ELF3 transfected)
T1 sequence (Q9ULK4 1-1368): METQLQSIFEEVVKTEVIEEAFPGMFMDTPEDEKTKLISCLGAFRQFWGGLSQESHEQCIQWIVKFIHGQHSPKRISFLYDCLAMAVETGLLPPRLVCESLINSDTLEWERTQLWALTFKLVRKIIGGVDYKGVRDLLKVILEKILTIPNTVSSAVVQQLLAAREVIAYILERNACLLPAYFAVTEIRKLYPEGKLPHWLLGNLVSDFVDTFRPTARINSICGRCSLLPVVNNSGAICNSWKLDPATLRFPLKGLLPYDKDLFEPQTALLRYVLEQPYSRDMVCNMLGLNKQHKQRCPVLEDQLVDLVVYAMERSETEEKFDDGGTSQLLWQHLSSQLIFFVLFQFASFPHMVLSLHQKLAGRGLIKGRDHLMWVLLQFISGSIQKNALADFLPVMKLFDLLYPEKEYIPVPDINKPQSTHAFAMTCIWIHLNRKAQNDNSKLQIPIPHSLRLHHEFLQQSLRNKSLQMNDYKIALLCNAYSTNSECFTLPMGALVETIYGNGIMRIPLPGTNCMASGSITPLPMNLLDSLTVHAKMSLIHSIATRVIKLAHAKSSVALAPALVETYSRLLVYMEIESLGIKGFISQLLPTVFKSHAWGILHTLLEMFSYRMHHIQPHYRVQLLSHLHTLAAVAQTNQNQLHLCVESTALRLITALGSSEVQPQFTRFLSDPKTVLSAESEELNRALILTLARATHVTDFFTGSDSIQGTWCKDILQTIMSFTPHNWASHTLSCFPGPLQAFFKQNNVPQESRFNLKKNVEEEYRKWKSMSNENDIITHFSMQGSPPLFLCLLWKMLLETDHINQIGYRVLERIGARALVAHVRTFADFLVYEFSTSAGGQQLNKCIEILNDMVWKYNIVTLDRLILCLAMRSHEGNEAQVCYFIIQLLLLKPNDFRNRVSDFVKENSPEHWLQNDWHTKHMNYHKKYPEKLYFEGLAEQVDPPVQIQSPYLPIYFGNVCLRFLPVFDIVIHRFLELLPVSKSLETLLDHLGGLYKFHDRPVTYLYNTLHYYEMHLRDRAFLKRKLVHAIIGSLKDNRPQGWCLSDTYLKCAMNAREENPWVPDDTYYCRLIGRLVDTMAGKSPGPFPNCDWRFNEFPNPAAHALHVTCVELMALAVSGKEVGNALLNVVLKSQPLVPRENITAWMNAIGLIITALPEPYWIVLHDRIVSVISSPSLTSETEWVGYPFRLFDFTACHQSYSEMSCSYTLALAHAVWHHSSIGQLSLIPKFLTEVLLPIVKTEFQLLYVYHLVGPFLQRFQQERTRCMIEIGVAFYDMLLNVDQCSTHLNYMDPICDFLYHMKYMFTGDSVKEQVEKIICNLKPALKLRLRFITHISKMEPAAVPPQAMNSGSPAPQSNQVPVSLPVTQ
In words: SEAP reporter assay, ELF3-MED23 PPI inhibition (293T kidney cells). It counts as cell-based. Conditions: 10 μM; for inhibition at 10 µM: HEK-293T. The procedure: To verify whether the D400 and H449 residues play a critical role in the ELF3-MED23 protein-protein interaction, a SEAP assay was performed. Specifically, 293T kidney cells were seeded at a density of 5×10^3 cells/well in a 96-well microplate (SPL, Korea) and cultured overnight. Subsequently, the cells were co-transfected with 100 ng of each plasmid using transfection-optimized medium (Welgene, Korea). The plasmids used included the SEAP reporter gene (pG5IL2SX) and GAL4-ELF3 expression vector (pBJ GAL4-ELF3). For transfection, the cells were incubated with WelFectQ (Welgene, Korea) for 3 hours, followed by the addition of either the candidate compound or MED23 protein constructs (pcDNA MED23^WT, K397A, D400A, H449G, and D400A/H449G). The treated cells were incubated for 12 hours. The candidate compound was added in an incubator at 5% CO2 and 37 °C, and the plate was incubated at 65 °C for 3 hours to inactivate all enzymes except SEAP (Secreted Alkaline Phosphatase). A mixture comprising 100 μL of substrate solution prepared with 1.19 μL of 0.1 M 4-methylumbelliferyl phosphate (Sigma, USA), 25 μL of inactivated medium, and 75 μL of double-distilled water was added, followed by the addition of 98.81 μL of 2 M diethanolamine (pH 10, Sigma, USA). The plate was incubated overnight at 37 °C. Subsequently, the fluorescence intensity was measured using a fluorometer (SPECTRAmax […], Molecular Devices, USA) at an excitation wavelength of 360 nm and an emission wavelength of 440 nm.
To further elaborate on the above findings, small molecule compounds that could affect the ELF3-MED23 PPI were designed and synthesized. Specifically, non-essential side chains were removed from gefitnib, and compounds were designed to include both hydrogen bond donors and acceptors for the D400 and H449 residues of MED23, respectively (FIG. 4A). Specifically, chalcones and pyrazolines were selected as core scaffolds, and 25 compounds (11 chalcones and 14 pyrazoline-based compounds) were prepared. The ELF3-MED23 PPI inhibitory activity of all prepared compounds was measured using a SEAP assay.
Background: In a reporter assay the amount or activity of a reporter protein is the signal.

The target of experiment [2] is T1, ELF3-MED23 protein-protein interaction. Conditions: cited from earlier work; for PPI inhibitory activity relative to gefitinib: ELF3-MED23 PPI.
Experiment [3] addresses T2, (His)6-MED23391-582 / FITC-ELF3129-145 peptide (Homo sapiens, UniProt Q9ULK4).
T2 construct: 391-582 and fluorescein isothiocyanate (FITC)-labeled
T2 sequence (Q9ULK4 391-582 limits assumed): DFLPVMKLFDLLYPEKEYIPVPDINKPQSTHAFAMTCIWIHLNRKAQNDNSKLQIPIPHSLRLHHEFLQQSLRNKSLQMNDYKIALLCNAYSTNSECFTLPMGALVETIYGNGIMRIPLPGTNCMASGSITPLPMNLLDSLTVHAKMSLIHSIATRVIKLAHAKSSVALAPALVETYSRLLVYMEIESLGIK
The experiment can be described thus: fluorescence polarization displacement assay. It counts as binding. Conditions: 80 nM (His)6-MED23391-582, 10 nM FITC-ELF3129-145; Cheng-Prusoff; read-out: PPI inhibitory activity calculated based on Ki value. On the procedure:
The samples, adjusted to a final volume of 50 μL, were incubated at room temperature for 30 minutes. Kd values were calculated using a least-squares non-linear fit method with Prism 6.0 software (GraphPad Software, USA). FP signals were measured in millipolarization (mP) units using an Infinite F200 PRO microplate reader (Tecan Group Ltd., Switzerland) at an excitation wavelength of 485 nm and an emission wavelength of 535 nm. For displacement analysis, graded concentrations of YK1 and unlabeled ELF3137-144 peptides were mixed with 80 nM (His) 6-MED23391-582 and 10 nM FITC-ELF3129-145.
The effect of compound YK1 was confirmed by measuring the reduction in FP signals, using unlabeled peptides as a positive control. The IC50 of each compound was determined by fitting the data to a four-parameter logistic equation using the Table Curve 2D program (SPSS Inc.). The Ki value was calculated using the Cheng-Prusoff equation (Ki=IC50/1+([Ligand]/Kd))

Experiment [4] has as its system HCT15 (HER2-positive colorectal cancer cell line). The experiment can be described thus: antiproliferative effect, HCT15. Conditions: Homo sapiens, HCT-15, 72 hours. It counts as cell-based. The procedure:
(§1) The antiproliferative effects were measured after treating Compounds 1 to 22 for 72 hours on HCT15 (HER2-positive colorectal cancer cell line), NCI-N87 (HER2-positive gastric cancer cell line), T47D (HER2-negative breast cancer cell line), and HeLa (HER2-negative cervical cancer cell line). As a result, strong antiproliferative effects were generally observed in the NCI-N87 cell line (Table 2).
(§2) The antiproliferative effects of the candidate compound, resulting from HER2 inhibition, were evaluated. Specifically, to confirm the anticancer effects of the candidate compound, cancer cells were seeded at a density of 10^4 cells/well in a 96-well cell culture plate for 20 hours. The cells were starved in serum-free media for 4 hours, followed by replacement with media containing the compound at specified concentrations. The cells were then incubated for 72 hours under conditions of 5% CO2 at 37 °C. Cell viability was determined by adding 5 μL of EZ-CytoX to each well and measuring absorbance at 450 nm. The measurements were performed using an ELISA Microplate Reader (VersaMax, Molecular Devices).

In experiment [5] the test system is NCI-N87 (HER2-positive gastric cancer cell line). In words: antiproliferative effect, NCI-N87. It counts as cell-based. Conditions: Homo sapiens, NCI-N87; 72 hours; HER2-positive. The procedure: as §1, §2
Experiment [6] has as its system T47D (HER2-negative breast cancer cell line). The experiment can be described thus: antiproliferative effect, T47D. It is filed as cell-based. Conditions: Homo sapiens, 72 hours. The procedure:
as §1, §2

In experiment [7] the test system is HeLa (HER2-negative cervical cancer cell line). In words: antiproliferative effect, HeLa. Conditions: Homo sapiens, 72 hours. It counts as cell-based. On the procedure: as §1, §2

Broadly, the inhibition is how much of the control response was suppressed. Low values mean little suppression, high ones strong suppression. In turn, `COc1cc2ncnc(Nc3ccc(F)c(Cl)c3)c2cc1OCCCN1CCOCC1` [Gefitinib, gefitinib, reference compound] showed an inhibition at 10 µM in experiment [1] of 85%. In experiment [2], the “known ELF3-MED23 PPI inhibition” value is “inhibit ELF3-MED23 protein-protein interaction (PPI)”.

As a reminder, the Ki is a dissociation constant, usually derived from enzyme kinetics or from competition with a known ligand. Turning to “ELF3137-144: ELF3137-144 peptide (8 a.a.), amino acids 137-144 of ELF3 (SWIIELLE; UniProt P78545 137-144, looked up, fragment) [reference compound]”, the “SEAP assay Inhibition (%)” value in experiment [1] was 53%. Also, the Ki in experiment [3] was 0.78 ± 0.05 µM. Besides, the “PPI inhibitory activity relative to gefitinib” value in experiment [2] is “superior PPI inhibitory activity compared to gefitinib”.

With `CC(C)N(CC(O)COc1cccc2[nH]ccc12)C(=O)N1CCC(C2CCN(C(=O)C34CC5CC(CC(C5)C3)C4)CC2)CC1` (centres unmarked) [adamanolol], in experiment [2], the “known ELF3-MED23 PPI inhibition” value was “inhibit ELF3-MED23 protein-protein interaction (PPI)”.

Take `C=CC(=O)Nc1cc2c(Nc3ccc(F)c(Cl)c3)ncnc2cc1OCCCN1CCOCC1` [canertinib]: in experiment [2], the “PPI inhibitory activity relative to gefitinib” value is recorded as “superior PPI inhibitory activity compared to gefitinib” and the “known ELF3-MED23 PPI inhibition” value was “inhibit ELF3-MED23 protein-protein interaction (PPI)”.

By IC50 is commonly meant the concentration at which inhibition is half-maximal. `O=C(/C=C/c1ccc(Cl)cc1)c1cccc(O)c1` [Compound 4, 3-(4-Chlorophenyl)-1-(3-hydroxyphenyl)-propenone] gave an inhibition at 10 µM in experiment [1] of 80%. Further, the IC50 came out at 12 ± 0.17 µM in experiment [4], 4.82 ± 0.1 µM in experiment [5], 17.57 ± 0.13 µM in experiment [6] and 25.64 ± 0.09 µM in experiment [7].

For `CC(=O)N1N=C(c2cccc(O)c2)CC1c1ccc(O)cc1` (centres unmarked) [Compound 16, 1-[5-(4-Hydroxyphenyl)-3-(3-hydroxyphenyl)-4,5-dihydropyrazol-1-yl]-ethanone], in experiment [1], the inhibition at 10 µM was 37%. The IC50 in experiment [4], in experiment [5], in experiment [6] and in experiment [7] was > 50 µM each time.

Consider `O=C(/C=C/c1ccco1)c1cccc(O)c1` [Compound 1, 3-Furan-2-yl-1-(3-hydroxyphenyl)-propenone], for which testing at 10 µM in experiment [1] gave an inhibition of 86%. The IC50 in experiment [4] was found to be 29.66 ± 0.14 µM; in experiment [5], 13.5 ± 0.29 µM; in experiment [6], 8.48 ± 0.02 µM; in experiment [7] it was 19.5 ± 0.04 µM.

As for `Cc1ccc(S(=O)(=O)n2ccc3c(OCC(O)CN(CCCCCN)C(=O)N4CCC(C5CCN(C(=O)C67CC8CC(CC(C8)C6)C7)CC5)CC4)cccc32)cc1` (centres unmarked) [wrenchnolol], the “known ELF3-MED23 PPI inhibition” value in experiment [2] is “inhibit ELF3-MED23 protein-protein interaction (PPI)”.

Consider `COc1ccc(C2CC(c3cccc(O)c3)=NN2C(C)=O)cc1` (centres unmarked) [Compound 13, 1-[3-(3-Hydroxyphenyl)-5-(4-methoxyphenyl)-4,5-dihydropyrazol-1-yl]-ethanone], for which the inhibition at 10 µM in experiment [1] turned out to be 58%. In addition, the IC50 in experiment [4], in experiment [5], in experiment [6] and in experiment [7] was > 50 µM in each case.

For the compound `COc1ccc(/C=C/C(=O)c2ccccc2O)c2ccccc12` [Compound 7, 1-(2-Hydroxyphenyl)-3-(4-methoxynaphthalen-1-yl)-propenone], the inhibition at 10 µM in experiment [1] was 80%. Besides, the IC50 in experiment [4] was 14.18 ± 0.05 µM; in experiment [5], 11.4 ± 0.12 µM; in experiment [6], 15.56 ± 0.15 µM; in experiment [7] it was 16.13 ± 0.08 µM.

`COc1ccc(/C=C/C(=O)c2cccc(O)c2)c2ccccc12` [Compound 3, 1-(3-Hydroxyphenyl)-3-(4-methoxynaphthalen-1-yl)-propenone]: at 10 µM the inhibition in experiment [1] was 70%. Further, the concentration for half-maximal inhibition (IC50) in experiment [4] was 7.64 ± 0.09 µM; in experiment [5], 3.45 ± 0.05 µM; in experiment [6], 1.21 ± 0.02 µM; in experiment [7] it was 9.73 ± 0.04 µM.

In turn, `COc1ccc(/C=C/C(=O)c2ccccc2O)cc1` [Compound 6, 1-(2-Hydroxyphenyl)-3-(4-methoxyphenyl)-propenone] returned an inhibition at 10 µM in experiment [1] of 90%. Also, the IC50 was > 50 µM in experiment [4], 44.9 ± 0.8 µM in experiment [5], > 50 µM in experiment [6] and > 50 µM in experiment [7].
